Data on 7 compounds can be found in patent publication US20260041660A1 (priority 2020, published 2026).

Data set [1] deals with MAPK. Briefly: Inventors' studies: TPA effect on MAPK hyper-stimulation. The class given is cell-based. To be noted: reduced MAPK activation and phosphorylation activity. The text has this: (§1) More complex effects of TPA on MAPK pathways involve TPA regulation of immune cell differentiation and apoptosis.
Data set [2] is classed as in vivo, C57Bl/6 mouse.
In data set [3] the test system is MAPK and JAK. Briefly: TPA pro-apoptotic effects via immune-regulatory kinases. The class given is cell-based. The following applies: through interactions with MAPK and JAK. An excerpt:
(§2) The instant disclosure, in conjunction with ongoing pilot studies by the inventors, illustrates a wide range of pro-immune and anti-inflammatory effects of TPA that will potently mediate reduction and/or prevention of ARDS conditions and symptoms, as well as other pathogenic conditions and symptoms associated with severe COVID-19 disease. […] Exemplary pilot studies have shown that TPA compounds will effectively treat and prevent lymphocytopenia, by virtue that these compounds promote full range of pro-immune effects relating to activation, proliferation and survival of lymphocytes. […] Neutrophils are evidently “hijacked” and reprogrammed by SARS-COV-2 proteins (and other emergent pro-inflammatory factors that emerge in the course of COVID-19 disease development), leading to profound dysregulation of neutrophil immune and inflammatory activities. […]

Data set [4] deals with PKC. Description: Inventors' studies: TPA effect on PKC. Type of data set: biochemical.
From the text: as §1

The test system of data set [5] is peripheral blood lymphocytes (predominantly T-cells). Briefly: Pilot studies: effect of TPA on peripheral blood lymphocytes. Type of data set: cell-based.
From the text: In addition to minimizing hyper-inflammatory activities of macrophages and neutrophils, TPA compositions and methods of the invention mediate protection of lymphocytes (prolongation of lifespan), and also directly stimulate lymphocyte proliferation and differentiation. […] This activity will protect and expand lymphocyte numbers, which in turn will mediate potent anti-viral effects.
as §2

The subject of data set [6] is IL-6. To be noted: in vitro and in vivo; Stat3, Akt, ERK1/2 pathways; cited from earlier work.
In data set [7] the test system is murine peritoneal macrophages. The following applies: via suppression of ERK1/2 signaling; cited from earlier work.
For data set [8] the following is noted: polar organic solvents and water; cited from earlier work.
Data set [9] concerns HIN1. The following applies: reducing infiltration of inflammatory cells, inhibiting pro-inflammatory cytokines; cited from earlier work.
In data set [10] the test system is SARS-COV-2. To be noted: recent in vitro studies; cited from earlier work.
Data set [11] concerns SARS-COV-2. To be noted: after 48 h of infection with SARS-COV-2; cited from earlier work.
Data set [12] concerns COVID-19. The following applies: human, in vivo; cited from earlier work.

As for `CCCCCCCCCCCCCC(=O)O[C@@H]1[C@H](C)[C@@]2(O)[C@@H](C=C(CO)C[C@]3(O)C(=O)C(C)=C[C@@H]23)[C@@H]2C(C)(C)[C@]12OC(C)=O` (stereo in doubt) [TPA, 12-O-tetradecanoylphorbol-13-acetate], the MAPK hyper-stimulation result in data set [1] is “clinically beneficial reduction in MAPK hyper-stimulation”. Also, in data set [2] (48 hrs), the “TNFα content in BALF samples” value is reported as “reduction of TNFα content” and the “protein extravasation in BALF samples” value was “reduction of protein extravasation in BALF samples”. For the same compound, the “ROS generation of lavaged neutrophils” value in data set [2] (after 48 hours) is “significant reduction in ROS generation”. Further, in data set [2] (mouse, in vivo), the “BALF WBC ROS production” value is given as “significantly lower”; the “LPS-induced EBD extravasation” value is “suppression of LPS-induced EBD extravasation”; the “hyper-elevation of IL-6, IL-10, TNFα, MIP2 and other pro-inflammatory cytokines” value is “block or reduce hyper-elevation”; the “monocyte/macrophage and neutrophil counts” value is “reduction in monocyte/macrophage and neutrophil counts”. In data set [2] (mouse, in vivo), the “neutrophil and RBC into pulmonary interstitial spaces and alveolar airspaces” value was “marked reduction in neutrophil and RBC”; the “presence of neutrophils in BALF” value is on record as “significantly reduced”; the “swelling of the alveolar walls” value is given as “reduced swelling of the alveolar walls”. Further, in data set [2] (mouse, in vivo, iv), the “histopathologic changes of the lung” value was “markedly suppressed”. In [3], the apoptotic effects entry is on record as “pro-apoptotic effects”. Further, the “effect on PKC” value in data set [4] is given as “not only activates, but stabilizes PKC”. Moreover, in data set [5], the “mitogenic effect on peripheral blood lymphocytes” value is given as “direct, clinically effective mitogenic effect”.
As to `C=C1CC[C@@H]2[C@](C)(CO)[C@H](O)CC[C@@]2(C)[C@@H]1C/C=C1/C(=O)OC[C@H]1O` [Andrographolide], the “IL-6 production and IL-6 hyper-inflammatory signaling” value in [6] was “inhibits IL-6 production and suppresses IL-6 hyper-inflammatory signaling in a dose-dependent manner”. In addition, the “production of TNF-α and interleukin-12” value in data set [7] was “inhibits the production of TNF-α and interleukin-12”.
With `CC1=C[C@H]2[C@@]3(O)[C@H](C)[C@@H](O)[C@]4(O)[C@H]([C@@H]3C=C(CO)C[C@]2(O)C1=O)C4(C)C` [Phorbol], the solubility entry in data set [8] was “well soluble in most polar organic solvents and in water”.
Turning to `O=C1CCC(N2C(=O)c3ccccc3C2=O)C(=O)N1` (stereo not shown) [Thalidomide], the “treatment of infected mice” value in data set [9] is “effective in treating HIN1-infected mice”.
As to `CCN(CCO)CCCC(C)Nc1ccnc2cc(Cl)ccc12` (stereo not shown) [hydroxychloroquine], the “viral load/titer of SARS-COV-2” value in data set [10] was “effectively reduces viral load/titer of SARS-COV-2”.
As for Ivermectin, in data set [11], the “reduce viral RNA” value is recorded as “up to 5,000 fold”.
As for “TCZ: recombinant human anti-IL-6 monoclonal antibody that binds soluble and membrane-bound IL-6 receptors”, in data set [12], the “fever and other ARDS symptoms” value was “reduces fever and other ARDS symptoms”; the “patients with opacity lung lesion on CT scans absorbed” value is 90.5%; the “patients with peripheral lymphocyte levels returned to normal” value is 52.6%; the “treated subjects showing improved oxygenation” value is 75.0%.
